According to the supplement of paper PMC10307832:

What was measured:
Assay in all cases: relative viability (nuclei count vs DMSO), 5 days (fraction); higher = more cells survive
NCI-H1792 = conditions: first compound 1 µM
Outline: (§1)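 Lung cancer cell lines in 1536-well plates were dosed by pin tool the day after seeding, either with one drug alone or with a fixed anchor-drug dose plus five library-drug doses (not always all listed) in √10 steps. After 5 days, cells were fixed and their nuclei stained in one step (final 0.05% Triton X-100, 1% formaldehyde, 1 ug/ml Hoechst), then counted on 4× images. Relative viability is the nuclei count in treated wells divided by that in vehicle wells. Values are medians of duplicate plates.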

NCI-H1793 = test system: NCI-H1793
Outline: as §1

NCI-H2347 = test system: NCI-H2347
Outline: as §1

NCI-H2009 = test system: NCI-H2009
Outline: as §1

NCI-H838 = test system: NCI-H838
Outline: as §1

NCI-H2170 = test system: NCI-H2170
Outline: as §1

SK-MES-1 = test system: SK-MES-1
Outline: as §1

NCI-H1355 = test system: NCI-H1355
Outline: as §1

NCI-H1993 = test system: NCI-H1993
Outline: as §1

HCC-15 = test system: HCC-15
Outline: as §1

NCI-H2228 = test system: NCI-H2228
Outline: as §1

NCI-H522 = test system: NCI-H522
Outline: as §1

O=c1cc(N2CCOCC2)oc2c(-c3cccc4c3sc3ccccc34)cccc12 + COc1cccc2cc(-c3nc([C@H]4CC[C@H](C(=O)O)CC4)n4ncnc(N)c34)[nH]c12 [OSI-027] (partner 0.5 µM)
relative viability (NCI-H1792): 0.779
relative viability (NCI-H1793; first compound 0.01 µM): 0.33
relative viability (NCI-H1793; first compound 0.1 µM): 0.287
relative viability (NCI-H1793; first compound 0.3162 µM): 0.251
relative viability (NCI-H1793; first compound 1 µM): 0.247
relative viability (NCI-H2347; first compound 0.01 µM): 0.503
relative viability (NCI-H2347; first compound 0.03162 µM): 0.392
relative viability (NCI-H2347; first compound 0.1 µM): 0.522
relative viability (NCI-H2347; first compound 0.3162 µM): 0.42
relative viability (NCI-H2347; first compound 1 µM): 0.461
relative viability (NCI-H2009; first compound 0.01 µM): 0.697
relative viability (NCI-H2009; first compound 0.03162 µM): 0.791
relative viability (NCI-H2009; first compound 0.1 µM): 0.664
relative viability (NCI-H2009; first compound 0.3162 µM): 0.65
relative viability (NCI-H2009; first compound 1 µM): 0.654
relative viability (NCI-H838; first compound 0.01 µM): 0.401
relative viability (NCI-H838; first compound 0.03162 µM): 0.397
relative viability (NCI-H838; first compound 0.1 µM): 0.389
relative viability (NCI-H838; first compound 0.3162 µM): 0.42
relative viability (NCI-H838; first compound 1 µM): 0.374
relative viability (NCI-H2170; first compound 0.01 µM): 0.716
relative viability (NCI-H2170; first compound 0.03162 µM): 0.845
relative viability (NCI-H2170; first compound 0.1 µM): 0.716
relative viability (NCI-H2170; first compound 0.3162 µM): 0.716
relative viability (NCI-H2170; first compound 1 µM): 0.716
relative viability (SK-MES-1; first compound 0.01 µM): 0.613
relative viability (SK-MES-1; first compound 0.03162 µM): 0.685
relative viability (SK-MES-1; first compound 0.1 µM): 0.531
relative viability (SK-MES-1; first compound 0.3162 µM): 0.633
relative viability (SK-MES-1; first compound 1 µM): 0.579
relative viability (NCI-H1355; first compound 0.01 µM): 0.474
relative viability (NCI-H1355; first compound 0.03162 µM): 0.469
relative viability (NCI-H1355; first compound 0.1 µM): 0.265
relative viability (NCI-H1355; first compound 0.3162 µM): 0.452
relative viability (NCI-H1355; first compound 1 µM): 0.394
relative viability (NCI-H1993; first compound 0.01 µM): 0.501
relative viability (NCI-H1993; first compound 0.03162 µM): 0.521
relative viability (NCI-H1993; first compound 0.1 µM): 0.566
relative viability (NCI-H1993; first compound 0.3162 µM): 0.532
relative viability (NCI-H1993; first compound 1 µM): 0.65
relative viability (HCC-15; first compound 0.01 µM): 0.674
relative viability (HCC-15; first compound 0.03162 µM): 0.807
relative viability (HCC-15; first compound 0.1 µM): 0.774
relative viability (HCC-15; first compound 0.3162 µM): 0.688
relative viability (HCC-15; first compound 1 µM): 0.67
relative viability (NCI-H2228; first compound 0.01 µM): 0.677
relative viability (NCI-H2228; first compound 0.03162 µM): 0.775
relative viability (NCI-H2228; first compound 0.1 µM): 0.558
relative viability (NCI-H2228; first compound 0.3162 µM): 0.605
relative viability (NCI-H2228; first compound 1 µM): 0.548
relative viability (NCI-H522; first compound 0.01 µM): 0.83
relative viability (NCI-H522; first compound 0.03162 µM): 0.708
relative viability (NCI-H522; first compound 0.1 µM): 0.496
relative viability (NCI-H522; first compound 0.3162 µM): 0.737
relative viability (NCI-H522; first compound 1 µM): 0.737
